In patent US20100215594A1, “Tyrosinase Inhibitors” (priority 2007, published 2010):
pIC50: −log10 of the molar value.

Target: tyrosinase from fungi
Assay: Tyrosinase assay (L-DOPA as substrate, optical density at 470 nm)
Assay type: biochemical
Details: tyrosinase from fungi (16U, Fluka), phosphate buffer pH 6.8, 10 min pre-incubation at 25° C., read-out: IC50 (concentration of the test compound at which 50% of the tyrosinase activity is inhibited)
Experimental: The action of the compounds I or Ia as skin lighteners is tested through their ability to inhibit the enzyme tyrosinase and thus to suppress melanin synthesis.
The inhibiting action of the compounds of the formula I or Ia against tyrosinase was assessed using tyrosinase from fungi and L-DOPA as substrate.
The compounds (1) and (2), as obtained in Example 1, and L-dopa are pre-incubated for 10 minutes at 25° C. in phosphate buffer (pH 6.8), and tyrosinase from fungi (16U) (Fluka) is subsequently added. The optical density of the samples is measured at 470 nm against a negative control (without active compound). Kojic acid and 4-hexylresorcinol are also tested as tyrosinase reference, i.e. positive control.
The results are shown in the following table, expressed in the IC50 value (the concentration of the test compound at which 50% of the tyrosinase activity is inhibited).

pIC50 | SMILES
6.30 | CCCCCCc1ccc(O)cc1O [4-Hexylresorcinol]
4.72 | CCCCCCc1ccc(OC(=O)C2CCC(=O)N2)cc1O (stereo not drawn) [(1), 4-Hexyl-3-hydroxyphenyl 2-pyrrolidinone-5-carboxylate]

SMILES | pIC50
O=c1cc(CO)occ1O [Kojic acid] | 4.92
